According to ChEMBL document CHEMBL4842374, “Natural inspired piperine-based sulfonamides and carboxylic acids as carbonic anhydrase inhibitors: Design, synthesis and biological evaluation” (Eur J Med Chem, 2021):

What was measured:
[1] = target: Carbonic anhydrase 12 (Homo sapiens, UniProt O43570); test: Inhibition of human CA12 measured after 15 mins by stopped flow carbon dioxide anhydrase assay
[2] = target: Carbonic anhydrase 2 (Homo sapiens, UniProt P00918); test: Inhibition of human CA2 measured after 15 mins by stopped flow carbon dioxide anhydrase assay
[3] = target: Carbonic anhydrase 1 (Homo sapiens, UniProt P00915); test: Inhibition of human CA1 measured after 15 mins by stopped flow carbon dioxide anhydrase assay
Chain of Carbonic anhydrase 1 (P00915 whole entry): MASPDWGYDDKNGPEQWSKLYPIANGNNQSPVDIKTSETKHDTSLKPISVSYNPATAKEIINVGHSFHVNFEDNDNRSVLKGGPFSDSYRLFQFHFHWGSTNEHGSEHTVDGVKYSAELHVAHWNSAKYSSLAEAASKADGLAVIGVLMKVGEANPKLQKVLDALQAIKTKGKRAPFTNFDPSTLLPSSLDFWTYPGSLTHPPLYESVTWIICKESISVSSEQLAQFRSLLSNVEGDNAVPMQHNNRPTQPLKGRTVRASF

[4] = target: Carbonic anhydrase 9 (Homo sapiens, UniProt Q16790)
Description: Inhibition of human CA9 measured after 15 mins by stopped flow carbon dioxide anhydrase assay

[5] = system: MCF7; test: Induction of apoptosis in human MCF7 cells assessed as necrotic cells measured by AnnexinV/FITC staining based flow cytometry assay ( Rvb = 0.74%); assay type: functional
[6] = system: MCF7; test: cells; assay type: functional, cell-based; settings: Homo sapiens, MCF7, 48 h
Description: Antiproliferative activity against human MCF7 cells assessed as inhibition of cell proliferation measured after 48 hrs by MTT assay

[7] = system: MCF7; test: Induction of apoptosis in human MCF7 cells assessed as late apoptotic cells measured by AnnexinV/FITC staining based flow cytometry assay ( Rvb = 0.17%); assay type: functional
[8] = system: MCF7; test: Induction of apoptosis in human MCF7 cells assessed as early apoptotic cells measured by AnnexinV/FITC staining based flow cytometry assay ( Rvb = 0.52%); assay type: functional

Chain of Carbonic anhydrase 12 (O43570 whole entry): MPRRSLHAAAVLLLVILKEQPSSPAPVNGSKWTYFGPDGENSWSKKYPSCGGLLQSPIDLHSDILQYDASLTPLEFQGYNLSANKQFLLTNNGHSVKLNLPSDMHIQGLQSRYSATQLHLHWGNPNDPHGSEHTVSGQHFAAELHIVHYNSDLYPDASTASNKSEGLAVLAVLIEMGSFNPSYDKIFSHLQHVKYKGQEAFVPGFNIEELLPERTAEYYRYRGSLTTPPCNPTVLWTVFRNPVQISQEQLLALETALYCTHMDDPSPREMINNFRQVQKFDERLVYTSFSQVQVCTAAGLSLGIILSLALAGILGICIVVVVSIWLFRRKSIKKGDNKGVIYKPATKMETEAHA

| Compound | Ki [1] [µM] | Ki [2] [µM] | Ki [3] [µM] | Ki [4] [µM] | also measured |
| --- | --- | --- | --- | --- | --- |
| COC(=O)c1ccc(NC(=O)N/C=C/C=C/c2ccc3c(c2)OCO3)cc1 | > 100 | > 100 | > 100 | > 100 |  |
| O=C(N/C=C/C=C/c1ccc2c(c1)OCO2)Nc1ccc(S(=O)(=O)Nc2nccs2)cc1 | > 100 | > 100 | > 100 | > 100 |  |
| O=C(N/C=C/C=C/c1ccc2c(c1)OCO2)Nc1cccc(C(=O)O)c1 |  |  | > 100 | 24.8 |  |
| NS(=O)(=O)c1cccc(NC(=O)N/C=C/C=C/c2ccc3c(c2)OCO3)c1 |  |  |  | 0.319 |  |
| COC(=O)c1cccc(NC(=O)N/C=C/C=C/c2ccc3c(c2)OCO3)c1 | > 100 | > 100 | > 100 | > 100 |  |

More lines, main results first:

| Ki [1] [µM] | Ki [2] [µM] | Ki [3] [µM] | Ki [4] [µM] | Compound | also measured |
| --- | --- | --- | --- | --- | --- |
|  |  | > 100 | 16.1 | O=C(N/C=C/C=C/c1ccc2c(c1)OCO2)Nc1ccc(C(=O)O)cc1 |  |
|  |  |  | 0.0682 | NS(=O)(=O)c1ccc(CCNC(=O)N/C=C/C=C/c2ccc3c(c2)OCO3)cc1 |  |
|  |  | > 100 | 30.3 | O=C(N/C=C/C=C/c1ccc2c(c1)OCO2)Nc1ccccc1C(=O)O |  |
|  |  |  | 0.903 | Cc1ccc(NC(=O)N/C=C/C=C/c2ccc3c(c2)OCO3)cc1S(N)(=O)=O |  |
|  |  |  | 0.739 | NS(=O)(=O)c1ccccc1NC(=O)N/C=C/C=C/c1ccc2c(c1)OCO2 |  |
| > 100 | > 100 | > 100 | > 100 | CC(=O)c1ccc(NC(=O)N/C=C/C=C/c2ccc3c(c2)OCO3)cc1 |  |
|  |  |  | 0.0387 | NS(=O)(=O)c1ccc(NC(=O)N/C=C/C=C/c2ccc3c(c2)OCO3)cc1 | Activity [5]: 14.19%; IC50 [6]: 2.17 µM; Activity [7]: 23.14%; Activity [8]: 1.91% |
